Data set [1] deals with S. Typhimurium SL1344 (sifB::gfp) in RAW 264.7 macrophages. Nature of the data set: SAFIRE macrophage assay: intracellular bacterial load (GFP signal within macrophages). It is filed as cell-based, Salmonella enterica serotype Typhimurium. The note with it: for IC50: Salmonella enterica, TYPHIMURIUM, RAW264.7, read-out: SAFIRE IC50. The method, boiled down: (§1)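 Compound or DMSO added 2 h after gentamicin-protected infection (MOI ~30, sifB::gfp SL1344) of RAW 264.7 cells and left to 18 h. Fixed cells imaged; intracellular GFP area per macrophage gives bacterial load, while retained adherent MitoTracker Red-stained macrophages define host toxicity.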

The test system of the next data set is RAW 264.7 macrophages. Nature of the data set: SAFIRE macrophage assay: host toxicity (adherent macrophage count, morphology). Format: cell-based. The method, boiled down:
as §1

The mark [2] stands for this setting: 5 uM, 'Toxic' given instead of a score.
Setting [3] is: 25 uM, 'Toxic' given instead of a score.
[4] abbreviates: 5 uM compound, n=1, DMSO solvent control = 98, rifampicin 2 μg/mL = 65.
The mark [5] stands for this setting: 25 uM compound, n=1, DMSO solvent control = 98, rifampicin 2 μg/mL = 65.
Setting [6] is: 5 uM compound, n=1, DMSO solvent control = 100.
[7] abbreviates: 25 uM compound, n=1, DMSO solvent control = 100.

Structures are written as SMILES.

Data on 18 molecules can be found in PMC10746280, “Bacterial efflux pump modulators prevent bacterial growth in macrophages and under broth conditions that mimic the host environment” (mBio, 2023).

The term IC50 denotes the concentration needed to halve the response being measured. Consider `COCCCN(C)C1CCN(CC(O)COc2ccc(Cl)c(Cl)c2)CC1` (stereo not shown) [CU210], for which, in data set [1] (setting [2]), the “5 uM Avg Antibacterial Score” value is on record as 54. Moreover, the “25 uM Avg Antibacterial Score” value in data set [1] (setting [3]) stood at 8. In data set [1], the IC50 amounted to 6 nM. In the data set with RAW 264.7 macrophages (5 uM), the “5 uM Avg Cell # Score” value was 131. Besides, in the data set with RAW 264.7 macrophages (25 uM), the “25 uM Avg Cell # Score” value is reported as 112.
`NC1CCN(C[C@@H](O)COc2ccc(Cl)c(Cl)c2)C1` (stereo partly shown) [CU161]: in data set [1] (setting [2]), the “5 uM Avg Antibacterial Score” value was 55. In addition, the “25 uM Avg Antibacterial Score” value in data set [1] (setting [3]) is recorded as 33. In addition, in data set [1], the IC50 was found to be 81.4 nM. For the same molecule, the “5 uM Avg Cell # Score” value with RAW 264.7 macrophages (5 uM) amounted to 138. Moreover, the “25 uM Avg Cell # Score” value with RAW 264.7 macrophages (25 uM) stood at 113. Further, in the data set on RAW 264.7 macrophages (16 h after treatment), the “toxicity to infected macrophages in SAFIRE” value is “non-toxic”.
Consider `OC(CNC1CCNCC1)COc1ccccc1Cl` (stereo not shown) [CU200], for which the “5 uM Avg Antibacterial Score” value in data set [1] (setting [2]) was 92. Besides, the “25 uM Avg Antibacterial Score” value in data set [1] (setting [3]) is listed as 65. Besides, the “5 uM Avg Cell # Score” value in the data set on RAW 264.7 macrophages (5 uM) is 99. Also, the “25 uM Avg Cell # Score” value with RAW 264.7 macrophages (25 uM) is reported as 108.
On to `CN(C)CC1COCCN1CC(O)COc1ccc(Cl)c(Cl)c1` (stereo not shown) [CU221], for which the “5 uM Avg Antibacterial Score” value in data set [1] (setting [2]) came out at 106. Further, the “25 uM Avg Antibacterial Score” value in data set [1] (setting [3]) came out at 84. In addition, the “5 uM Avg Cell # Score” value in the data set on RAW 264.7 macrophages (5 uM) was determined as 104. Moreover, in the data set with RAW 264.7 macrophages (25 uM), the “25 uM Avg Cell # Score” value is reported as 106.
In the case of `N[C@H]1CC[C@@H](NCC(O)COc2cc(Cl)cc(Cl)c2)CC1` (stereo partly shown) [CU216], the “5 uM Avg Antibacterial Score” value in data set [1] (setting [2]) was 52. In addition, in data set [1] (setting [3]), the “25 uM Avg Antibacterial Score” value is on record as “Toxic”. Besides, in the data set on RAW 264.7 macrophages (5 uM), the “5 uM Avg Cell # Score” value worked out at 102. The “25 uM Avg Cell # Score” value in the data set on RAW 264.7 macrophages (25 uM) was determined as 22.
For the molecule `CNC1CCN(C[C@@H](O)COc2ccc(Cl)c(Cl)c2)C1` (stereo partly shown) [CU163], the “5 uM Avg Antibacterial Score” value in data set [1] (setting [2]) stood at 65. Further, the “25 uM Avg Antibacterial Score” value in data set [1] (setting [3]) came out at 47. In addition, in the data set on RAW 264.7 macrophages (5 uM), the “5 uM Avg Cell # Score” value is recorded as 101. Further, the “25 uM Avg Cell # Score” value in the data set on RAW 264.7 macrophages (25 uM) was 111.
Consider `OC(CN[C@H]1[C@@H]2CNC[C@@H]21)COc1ccc(Cl)c(Cl)c1` (stereo partly shown) [CU236], for which the “5 uM Avg Antibacterial Score” value in data set [1] (setting [4]) came to 53. The “25 uM Avg Antibacterial Score” value in data set [1] (setting [5]) was 18. Also, in the data set with RAW 264.7 macrophages (setting [6]), the “5 uM Avg Cell # Score” value is 121. The “25 uM Avg Cell # Score” value in the data set on RAW 264.7 macrophages (setting [7]) was 99.
As to `OC(COc1ccccc1Cl)CN1CCC(Nc2ncccn2)CC1` (stereo not shown) [CU049], the “5 uM Avg Antibacterial Score” value in data set [1] (setting [2]) turned out to be 104. Moreover, in data set [1] (setting [3]), the “25 uM Avg Antibacterial Score” value is 61. The “5 uM Avg Cell # Score” value with RAW 264.7 macrophages (5 uM) was 84. Further, the “25 uM Avg Cell # Score” value with RAW 264.7 macrophages (25 uM) is recorded as 121.
As for `NCCC1CCN(CC(O)COc2cc(Cl)cc(Cl)c2)CC1` (stereo not shown) [CU250], in data set [1] (setting [4]), the “5 uM Avg Antibacterial Score” value is on record as 20. For the same molecule, the “25 uM Avg Antibacterial Score” value in data set [1] (setting [5]) is on record as “Toxic”. For the same molecule, in the data set on RAW 264.7 macrophages (setting [6]), the “5 uM Avg Cell # Score” value came out at 115. The “25 uM Avg Cell # Score” value with RAW 264.7 macrophages (setting [7]) came to 26.
Consider `OC(COc1ccc(Cl)c(Cl)c1)CN1CCC(Nc2nccs2)CC1` (stereo not shown) [CU051], for which the “5 uM Avg Antibacterial Score” value in data set [1] (setting [2]) was determined as 58. For the same molecule, the “25 uM Avg Antibacterial Score” value in data set [1] (setting [3]) is listed as 45. The “5 uM Avg Cell # Score” value in the data set with RAW 264.7 macrophages (5 uM) amounted to 123. Also, the “25 uM Avg Cell # Score” value in the data set with RAW 264.7 macrophages (25 uM) is 105.
For the molecule `OC(COc1ccc(Cl)c(Cl)c1)CN1CCCC(N2CCOCC2)C1` (stereo not shown) [CU030], the “5 uM Avg Antibacterial Score” value in data set [1] (setting [2]) is listed as 102. Besides, the “25 uM Avg Antibacterial Score” value in data set [1] (setting [3]) came to 45. For the same molecule, the “5 uM Avg Cell # Score” value with RAW 264.7 macrophages (5 uM) amounted to 57. Further, the “25 uM Avg Cell # Score” value in the data set on RAW 264.7 macrophages (25 uM) was 126.
The like results for `CC(=O)N(C)C1CCN(CC(O)COc2ccc(Cl)c(Cl)c2)CC1` (stereo not shown) [CU064] were, in that order, 106, 90, 86 and 82.
Consider `OC(COc1ccc2c(c1)OCO2)CN1CCC(Nc2nccc(C(F)(F)F)n2)C1` (stereo not shown) [CU099], for which, in data set [1] (setting [2]), the “5 uM Avg Antibacterial Score” value is 104. Moreover, the “25 uM Avg Antibacterial Score” value in data set [1] (setting [3]) is given as 25. Further, in the data set with RAW 264.7 macrophages (5 uM), the “5 uM Avg Cell # Score” value stood at 77. For the same molecule, in the data set with RAW 264.7 macrophages (25 uM), the “25 uM Avg Cell # Score” value was determined as 102.
Regarding `NC1CCN(C[C@H](O)COc2ccc(Cl)c(Cl)c2)C1` (stereo partly shown) [CU160], the “5 uM Avg Antibacterial Score” value in data set [1] (setting [2]) is recorded as 51. Further, the “25 uM Avg Antibacterial Score” value in data set [1] (setting [3]) amounted to 35. Further, in data set [1], the IC50 stood at 2.6 nM. Moreover, in the data set with RAW 264.7 macrophages (5 uM), the “5 uM Avg Cell # Score” value amounted to 137. Further, the “25 uM Avg Cell # Score” value with RAW 264.7 macrophages (25 uM) is on record as 129.
Regarding `OC(COc1ccc(Cl)c(Cl)c1)CN1CCC2(CCN2)C1` (stereo not shown) [CU149], the “5 uM Avg Antibacterial Score” value in data set [1] (setting [2]) was 73. Also, in data set [1] (setting [3]), the “25 uM Avg Antibacterial Score” value stood at 53. In addition, in the data set on RAW 264.7 macrophages (5 uM), the “5 uM Avg Cell # Score” value stood at 128. In the data set with RAW 264.7 macrophages (25 uM), the “25 uM Avg Cell # Score” value is reported as 108.
The like results for `COc1ccc(OCC(O)CN2CCC(Nc3ncccn3)CC2)cc1` (stereo not shown) [CU046] were, in that order, 103, 75, 74 and 173.
Regarding `CO[C@H]1CCN(CC(O)COc2ccc(Cl)c(Cl)c2)C1` (stereo partly shown) [CU126], the “5 uM Avg Antibacterial Score” value in data set [1] (setting [2]) is recorded as 99. In addition, the “25 uM Avg Antibacterial Score” value in data set [1] (setting [3]) was determined as 47. Also, the “5 uM Avg Cell # Score” value in the data set with RAW 264.7 macrophages (5 uM) was determined as 81. Besides, in the data set with RAW 264.7 macrophages (25 uM), the “25 uM Avg Cell # Score” value amounted to 86.
Regarding `OC(COc1ccc(Cl)c(Cl)c1)CN1CC2CCC1CO2` (stereo not shown) [CU224], the “5 uM Avg Antibacterial Score” value in data set [1] (setting [2]) came to 100. In data set [1] (setting [3]), the “25 uM Avg Antibacterial Score” value is listed as 69. For the same molecule, the “5 uM Avg Cell # Score” value in the data set on RAW 264.7 macrophages (5 uM) turned out to be 117. Besides, the “25 uM Avg Cell # Score” value in the data set on RAW 264.7 macrophages (25 uM) was found to be 95.
